US9695155B2, “Herbicidal substituted pyrimidinyloxy benzene compounds” (E. I. DU PONT DE NEMOURS AND COMPANY, priority 2013, dated 2017)

Assays:
barnyardgrass = assay: Test A preemergence; format: in vivo, Echinochloa crus-galli; settings: Echinochloa crus-galli, pre-emergence, 240 h, read-out: Barnyardgrass plant response rating
Outline: (§1)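 Injury scores run from 0, no effect, to 100, complete control, judged by eye against untreated plants roughly 10 days after treatment. Chemicals carried a surfactant in a non-phytotoxic solvent and went onto loam–sand soil preemergence or onto one- to two-leaf seedlings postemergence.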

morningglory [1] = assay: Test A preemergence; format: in vivo, Ipomoea spp.; settings: Ipomoea, pre-emergence, 240 h, read-out: Morningglory plant response rating
Outline: as §1

pigweed [2] = assay: Test A preemergence; format: in vivo, Amaranthus retroflexus; settings: Amaranthus retroflexus, pre-emergence, 240 h, read-out: Pigweed plant response rating
Outline: as §1

velvetleaf [3] = assay: Test A preemergence; format: in vivo, Abutilon theophrasti; settings: Abutilon theophrasti, pre-emergence, 240 h, read-out: Velvetleaf plant response rating
Outline: as §1

morningglory [4] = assay: Test A postemergence; format: in vivo, Ipomoea spp.; settings: Ipomoea, post-emergence, 240 h
Outline: as §1

wheat = assay: Test A postemergence; format: in vivo, Triticum aestivum; settings: Triticum aestivum, post-emergence, 240 h
Outline: as §1

Heteranthera limosa = assay: Test B flooded paddy test; format: in vivo; settings: Heteranthera limosa, Flood, 250 g ai/ha; 0 to 100 scale where 0 is no effect and 100 is complete control; read-out: Plant response rating, Ducksalad
Outline: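 Scores from 0 (no effect) to 100 (complete control) are visual comparisons with controls, taken 13 to 15 days after compound was applied into floodwater 3 cm deep around 2-leaf plants.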

blackgrass = assay: Test C postemergence; format: in vivo, Alopecurus myosuroides; settings: Alopecurus myosuroides, post-emergence
Outline: (§2)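 Injury was assessed visually against controls 13 to 15 days after application, with 0 meaning no effect and 100 full control; missing entries are shown as a dash. Preemergence sprays hit seeded loam–sand soil, postemergence sprays hit 1- to 4-leaf plants.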

morningglory [5] = assay: Test C postemergence; format: in vivo, Ipomoea coccinea; settings: Ipomoea, post-emergence
Outline: as §2

pigweed [6] = assay: Test C postemergence; format: in vivo, Amaranthus retroflexus; settings: Amaranthus retroflexus, post-emergence
Outline: as §2

ragweed = assay: Test C postemergence; format: in vivo, Ambrosia elatior; settings: Ambrosia artemisiifolia, post-emergence
Text: (§3) Seeds of plant species selected from blackgrass (Alopecurus myosuroides), Italian ryegrass (Lolium multiflorum), wheat, winter (winter wheat, Triticum aestivum), galium (catchweed bedstraw, Galium aparine), corn (Zea mays), large (Lg) crabgrass (Digitaria sanguinalis), giant foxtail (Setaria faberii), johnsongrass (Sorghum halepense), lambsquarters (Chenopodium album), morningglory (Ipomoea coccinea), yellow nutsedge (Cyperus esculentus), pigweed (Amaranthus retroflexus), ragweed (common ragweed, Ambrosia elatior), soybean (Glycine max), barnyardgrass (Echinochloa crus-galli), oilseed rape (Brassica napus), waterhemp (common waterhemp, Amaranthus rudis), kochia (Kochia scoparia), wild oat (Avena fatua), surinam grass (Brachiaria decumbens), foxtail, green (green foxtail, Setaria viridis), goosegrass (Eleusine indica), bromegrass, downy (downy bromegrass, Bromus tectorum), nightshade (eastern black nightshade, Solanum ptycanthum), cocklebur (common cocklebur, Xanthium strumarium), cupgrass, woolly (woolly cupgrass, Eriochloa villosa), bermudagrass (Cynodon dactylon), sunflower, (common oilseed sunflower, Helianthus annuus), Russian thistle (Salsola kali), and velvetleaf (Abutilon theophrasti) were planted into a blend of loam soil and sand and treated preemergence with test chemicals formulated in a non-phytotoxic solvent mixture which included a surfactant.
(§4) At the same time, plants selected from these crop and weed species and also barley, winter (winter barley, Hordeum vulgare), windgrass (Apera spica-venti), chickweed (common chickweed, Stellaria media), deadnettle (henbit deadnettle, Lamium amplexicaule), and canarygrass (littleseed canarygrass, Phalaris minor) were planted in pots containing Redi-Earth® planting medium (Scotts Company, 14111 Scottslawn Road, Marysville, Ohio 43041) comprising spaghnum peat moss, vermiculite, wetting agent and starter nutrients and treated with postemergence applications of test chemicals formulated in the same manner. Plants ranged in height from 2 to 18 cm (1- to 4-leaf stage) for postemergence treatments. Treated plants and controls were maintained in a greenhouse for 13 to 15 days, after which time all species were compared to controls and visually evaluated. Plant response ratings, summarized in Table C, are based on a scale of 0 to 100 where 0 is no effect and 100 is complete control. A dash (-) response means no test result.

kochia = assay: Test C postemergence; format: in vivo, Kochia scoparia; settings: Bassia scoparia, post-emergence
Outline: as §2

wild oat = assay: Test C postemergence; format: in vivo, Avena fatua; settings: Avena fatua, post-emergence
Outline: as §2

velvetleaf [7] = assay: Test C postemergence; format: in vivo, Abutilon theophrasti; settings: Abutilon theophrasti, post-emergence
Text: as §3, §4

[8] = 125 g ai/ha, 0 to 100 scale where 0 is no effect and 100 is complete control
[9] = 500 g ai/ha, 0 to 100 scale, 0 no effect, 100 complete control, approx. 10 days

Clc1cnn(-c2ccccc2Oc2ncc(Br)cn2)c1 [Compound 5, 5-bromo-2-[2-(4-chloro-1H-pyrazol-1-yl)phenoxy]pyrimidine]
pest or weed control at 125 g/ha (barnyardgrass; [8]): 10% | pest or weed control at 500 g/ha (barnyardgrass; [9]): 80% | pest or weed control at 125 g/ha (morningglory [1]; [8]): 0% | pest or weed control at 500 g/ha (morningglory [1]; [9]): 20% | pest or weed control at 125 g/ha (pigweed [2]; [8]): 100% | pest or weed control at 500 g/ha (pigweed [2]; [9]): 100% | pest or weed control at 125 g/ha (velvetleaf [3]; [8]): 90% | pest or weed control at 500 g/ha (velvetleaf [3]; [9]): 100% | pest or weed control at 125 g/ha (morningglory [4]; 125 g ai/ha, 0 to 100 scale where 0 is no effect and 100 is complete control, read-out: Plant response rating, Morningglory): 80% | pest or weed control at 500 g/ha (morningglory [4]; 500 g ai/ha, 0 to 100 scale, 0 no effect, 100 complete control, read-out: Plant response rating Morningglory): 90% | plant injury at 125 g/ha (wheat; 125 g ai/ha, 0 to 100 scale where 0 is no effect and 100 is complete control, read-out: Plant response rating, Wheat): 0% | plant injury at 500 g/ha (wheat; 500 g ai/ha, 0 to 100 scale, 0 no effect, 100 complete control, read-out: Plant response rating Wheat): 40% | pest or weed control at 250 g/ha (Heteranthera limosa): 50% | pest or weed control at 125 g/ha (blackgrass; 125 g ai/ha, postemergence, read-out: Plant response rating (0 to 100), Blackgrass): 20% | pest or weed control at 250 g/ha (blackgrass; 250 g ai/ha, postemergence, read-out: Plant response rating (0 to 100), Blackgrass): 45% | pest or weed control at 31 g/ha (blackgrass; Postemergence, 31 g ai/ha, scale 0 to 100 (0 no effect, 100 complete control), 13 to 15 days, read-out: Plant response rating, Blackgrass): 0% | pest or weed control at 62 g/ha (blackgrass; Postemergence, 62 g ai/ha, scale 0 to 100 (0 no effect, 100 complete control), read-out: Plant response rating, Blackgrass): 5% | pest or weed control at 125 g/ha (morningglory [5]; 125 g ai/ha, postemergence, read-out: Plant response rating (0 to 100), Morningglory): 60% | pest or weed control at 250 g/ha (morningglory [5]; 250 g ai/ha, postemergence, read-out: Plant response rating (0 to 100), Morningglory): 90% | pest or weed control at 31 g/ha (morningglory [5]; Postemergence, 31 g ai/ha, scale 0 to 100 (0 no effect, 100 complete control), 13 to 15 days, read-out: Plant response rating, Morningglory): 40% | pest or weed control at 62 g/ha (morningglory [5]; Postemergence, 62 g ai/ha, scale 0 to 100 (0 no effect, 100 complete control), read-out: Plant response rating, Morningglory): 60% | pest or weed control at 125 g/ha (pigweed [6]; 125 g ai/ha, postemergence, read-out: Plant response rating (0 to 100), Pigweed): 100% | pest or weed control at 250 g/ha (pigweed [6]; 250 g ai/ha, postemergence, read-out: Plant response rating (0 to 100), Pigweed): 100% | pest or weed control at 31 g/ha (pigweed [6]; Postemergence, 31 g ai/ha, scale 0 to 100 (0 no effect, 100 complete control), 13 to 15 days, read-out: Plant response rating, Pigweed): 98% | pest or weed control at 62 g/ha (pigweed [6]; Postemergence, 62 g ai/ha, scale 0 to 100 (0 no effect, 100 complete control), read-out: Plant response rating, Pigweed): 98% | pest or weed control at 125 g/ha (ragweed; 125 g ai/ha, postemergence, read-out: Plant response rating (0 to 100), Ragweed): 55% | pest or weed control at 250 g/ha (ragweed; 250 g ai/ha, postemergence, read-out: Plant response rating (0 to 100), Ragweed): 85% | pest or weed control at 31 g/ha (ragweed; Postemergence, 31 g ai/ha, scale 0 to 100 (0 no effect, 100 complete control), 13 to 15 days, read-out: Plant response rating, Ragweed): 15% | pest or weed control at 62 g/ha (ragweed; Postemergence, 62 g ai/ha, scale 0 to 100 (0 no effect, 100 complete control), read-out: Plant response rating, Ragweed): 45% | pest or weed control at 125 g/ha (kochia; 125 g ai/ha, postemergence, read-out: Plant response rating (0 to 100), Kochia): 70% | pest or weed control at 250 g/ha (kochia; 250 g ai/ha, postemergence, read-out: Plant response rating (0 to 100), Kochia): 100% | pest or weed control at 31 g/ha (kochia; Postemergence, 31 g ai/ha, scale 0 to 100 (0 no effect, 100 complete control), 13 to 15 days, read-out: Plant response rating, Kochia): 20% | pest or weed control at 62 g/ha (kochia; Postemergence, 62 g ai/ha, scale 0 to 100 (0 no effect, 100 complete control), read-out: Plant response rating, Kochia): 55% | pest or weed control at 125 g/ha (wild oat; 125 g ai/ha, postemergence, read-out: Plant response rating (0 to 100), Oat, Wild): 10% | pest or weed control at 250 g/ha (wild oat; 250 g ai/ha, postemergence, read-out: Plant response rating (0 to 100), Oat, Wild): 30% | pest or weed control at 31 g/ha (wild oat; Postemergence, 31 g ai/ha, scale 0 to 100 (0 no effect, 100 complete control), 13 to 15 days, read-out: Plant response rating, Oat, Wild): 0% | pest or weed control at 62 g/ha (wild oat; Postemergence, 62 g ai/ha, scale 0 to 100 (0 no effect, 100 complete control), read-out: Plant response rating, Oat, Wild): 5% | pest or weed control at 125 g/ha (velvetleaf [7]; 125 g ai/ha, postemergence, read-out: Plant response rating (0 to 100), Velvetleaf): 80% | pest or weed control at 250 g/ha (velvetleaf [7]; 250 g ai/ha, postemergence, read-out: Plant response rating (0 to 100), Velvetleaf): 98% | pest or weed control at 31 g/ha (velvetleaf [7]; Postemergence, 31 g ai/ha, scale 0 to 100 (0 no effect, 100 complete control), 13 to 15 days, read-out: Plant response rating, Velvetleaf): 45% | pest or weed control at 62 g/ha (velvetleaf [7]; Postemergence, 62 g ai/ha, scale 0 to 100 (0 no effect, 100 complete control), read-out: Plant response rating, Velvetleaf): 55%
